Measured values as given in BindingDB's records for doi:10.7270/Q2TX3CTT (Broad Institute, 2010).

The molecules below were run against Glycogen synthase kinase-3 beta (Homo sapiens, UniProt P49841) (assay: GSK3beta kinase inhibitor potency, dose response, biochemical, luminescence, cell-free homogeneous, retest (AID 434954)).
Glycogen synthase kinase-3 beta, sequence (P49841 whole entry): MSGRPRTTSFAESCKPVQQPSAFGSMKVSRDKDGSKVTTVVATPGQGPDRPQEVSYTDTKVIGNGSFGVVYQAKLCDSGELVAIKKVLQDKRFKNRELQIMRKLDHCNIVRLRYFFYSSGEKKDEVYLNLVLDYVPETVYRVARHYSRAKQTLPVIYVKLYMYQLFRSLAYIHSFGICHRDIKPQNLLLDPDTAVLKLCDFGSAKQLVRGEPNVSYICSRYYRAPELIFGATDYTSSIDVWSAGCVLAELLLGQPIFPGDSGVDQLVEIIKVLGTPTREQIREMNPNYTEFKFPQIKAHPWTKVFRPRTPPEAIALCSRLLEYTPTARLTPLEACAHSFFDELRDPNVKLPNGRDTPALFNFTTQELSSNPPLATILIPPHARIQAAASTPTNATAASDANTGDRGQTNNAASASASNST

Row | Structure (SMILES) | EC50
1 | COc1ccc(COC(=O)c2cccc(S(=O)(=O)N3CCN(C(C)=O)CC3)c2)cc1 [(4-methoxyphenyl)methyl 3-(4-acetylpiperazin-1-yl)sulfonylbenzoate] | > 300 µM
2 | CSc1nc(SCC(=O)NC(c2ccccc2)c2ccccc2)c2c3c(sc2n1)CN(C)CC3 | > 300 µM
3 | COc1cccc(C(=O)Nc2nc3ccccc3s2)c1 [N-Benzothiazol-2-yl-3-methoxy-benzamide] | > 300 µM
4 | COc1ccc(Nc2nc(NCc3ccco3)nc(N)c2[N+](=O)[O-])cc1 [2-N-(furan-2-ylmethyl)-4-N-(4-methoxyphenyl)-5-nitropyrimidine-2,4,6-triamine] | > 300 µM
5 | COc1ccc(C2CC(=O)c3c(O)cc(O)cc3O2)c(CC=C(C)C)c1OC (configuration not stated) [antiarone F] | > 300 µM
6 | O=C(Nc1cccc2c1C(=O)NC2=O)c1cccnc1Cl [N-[1,3-bis(oxidanylidene)isoindol-4-yl]-2-chloranyl-pyridine-3-carboxamide] | > 300 µM
7 | COc1ccc(C(=O)Nc2ccc([N+](=O)[O-])cn2)cc1OC [3,4-dimethoxy-N-(5-nitropyridin-2-yl)benzamide] | > 300 µM
8 | CSc1nc2c(c(=O)[nH]1)C(c1cccs1)C1C(=O)CCCC1=N2 (configuration not stated) | > 300 µM
9 | Fc1ccc(-c2nnc(SCc3cccnc3)o2)cc1 [2-(4-fluorophenyl)-5-(pyridin-3-ylmethylsulfanyl)-1,3,4-oxadiazole] | 75.5 µM
10 | CCn1c(SCC(=O)Nc2ccc(C(C)=O)cc2)nnc1C1CC1 [N-(4-acetylphenyl)-2-[(5-cyclopropyl-4-ethyl-1,2,4-triazol-3-yl)sulfanyl]acetamide] | > 300 µM
11 | CCOC(=O)c1nnn(-c2nonc2N)c1CN(CC)CC [ethyl 1-(4-amino-1,2,5-oxadiazol-3-yl)-5-(diethylaminomethyl)triazole-4-carboxylate] | > 300 µM
12 | O=C(CSc1nnc(COc2ccc(Cl)cc2)o1)N1c2ccccc2CCc2ccccc21 [2-[5-(4-Chloro-phenoxymethyl)-[1,3,4]oxadiazol-2-ylsulfanyl]-1-(10,11-dihydro-dibenzo[b,f]azepin-5-yl)-ethanone] | > 300 µM
13 | CCSc1nc2sc3c(c2c(=O)n1-c1ccccc1)CCN(C)C3 [2-Ethylsulfanyl-7-methyl-3-phenyl-5,6,7,8-tetrahydro-3H-9-thia-1,3,7-triaza-fluoren-4-one] | > 300 µM
14 | Cc1nc(C)c(-c2csc(Nc3ccc(C(=O)O)c(O)c3)n2)s1 [4-[[4-(2,4-dimethyl-1,3-thiazol-5-yl)-1,3-thiazol-2-yl]amino]-2-hydroxybenzoic acid] | > 300 µM
15 | Cc1ccc(CC(=O)Nc2ncc([N+](=O)[O-])s2)cc1 [2-(4-methylphenyl)-N-(5-nitro-1,3-thiazol-2-yl)acetamide] | 28.8 µM
16 | CCCn1nc(NC(=O)c2cccs2)c2cc3cccc(C)c3nc21 | > 300 µM
17 | O=C(Nc1cccc2c1C(=O)NC2=O)c1cccc(-n2c(O)ccc2O)c1 | > 300 µM
18 | Cc1nc2sc(C(c3cccc(F)c3)N3CC(C)OC(C)C3)c(O)n2n1 (configuration not stated) | > 300 µM
19 | CCCCn1nc(NC(=O)CC(C)C)c2cc3cc(OC)ccc3nc21 [N-(1-butyl-6-methoxy-3-pyrazolo[3,4-b]quinolinyl)-3-methylbutanamide] | > 300 µM
20 | COc1cc(/C=C(\C#N)C(=O)c2c[nH]c3ccccc23)cc(OC)c1O [(E)-3-(4-hydroxy-3,5-dimethoxyphenyl)-2-(1H-indole-3-carbonyl)prop-2-enenitrile] | 6.57 µM
21 | O=C(O)c1ccccc1C(=O)Nc1nccs1 [2-(1,3-thiazol-2-ylcarbamoyl)benzoic acid] | > 300 µM
22 | COc1ccc(C(=O)c2sc(Nc3ccccc3)nc2N)cc1 | 1.04 µM
23 | COc1ccc(Nc2nc(N)c([N+](=O)[O-])c(NCCO)n2)cc1 [2-[6-Amino-2-(4-methoxy-phenylamino)-5-nitro-pyrimidin-4-ylamino]-ethanol] | 2.6 µM
24 | COc1nc(NCCN2CCOCC2)nc(Nc2ccc([N+](=O)[O-])cc2)n1 | > 300 µM
25 | O=C(Nc1ccccc1C(=O)O)c1nnc[nH]1 | > 300 µM
26 | COCCn1c(SCC(=O)NC(=O)NC(C)(C)C)nc2ccccc21 | > 300 µM
27 | CCOC(=O)C1C(C)=Nc2ncnn2C1c1ccc2c(c1)OCO2 (configuration not stated) | > 300 µM
28 | COC(=O)c1ccccc1Nc1ccnc(Cl)n1 [methyl 2-[(2-chloropyrimidin-4-yl)amino]benzoate] | > 300 µM
29 | CN(C)c1ccc(C=NNC(=O)c2nnn(-c3nonc3N)c2CN2CCCCCC2)cc1 [1-(4-amino-1,2,5-oxadiazol-3-yl)-5-(1-azepanylmethyl)-N-[[4-(dimethylamino)phenyl]methylideneamino]-4-triazolecarboxamide] | > 300 µM
30 | CCOc1ccc2ncc(C(=O)c3ccc(OC)cc3)c(N3CCN(CC)CC3)c2c1 [[6-ethoxy-4-(4-ethylpiperazin-1-yl)quinolin-3-yl](4-methoxyphenyl)methanone] | > 300 µM

More lines, now with the values ahead:

Row | EC50 | Structure (SMILES)
31 | > 300 µM | CCn1c(SCC(=O)Nc2ccc(Cl)cc2)nnc1C1CC1 [MLS000115911]
32 | > 300 µM | CSc1nsc(CC=Nc2ccc(Cl)cc2)c1C#N [MLS000539457]
33 | 4.86 µM | CC(C)CC(=O)Nc1ncc([N+](=O)[O-])s1 [MLS001043214]
34 | > 300 µM | CCOC(=O)c1c(S(=O)(=O)NCC(=O)Nc2ccccc2)c(C)n(C)c1C [MLS001028712]
35 | > 300 µM | COc1cccc(N(C(=O)C[S+]([O-])CC(=O)Nc2ccc(F)cc2)C(C(=O)NC2CCCCC2)c2cccs2)c1 (configuration not stated) [MLS000566826]
36 | > 300 µM | CSCCC(C(=O)NCc1cccs1)N1C(=O)c2ccccc2C1=O (configuration not stated) [SMR000150898]
37 | 23.6 µM | CC(C)(C)Sc1ccc(CN=O)cc1[N+](=O)[O-] [SMR000335018]
38 | 71.9 µM | Nc1nc(NCc2ccccc2)nc(NCCO)c1[N+](=O)[O-] [MLS000332798]
39 | > 300 µM | O=C1NC(=NNc2ccccc2)SC1=Cc1ccccc1 [SMR000174572]
40 | > 300 µM | O=C(NCC(c1ccco1)N1CCc2ccccc21)c1cccc([N+](=O)[O-])c1 (configuration not stated) [SMR000811914]
41 | > 300 µM | CCN(c1ccccc1)S(=O)(=O)c1cc(NC(=O)Nc2ccccc2C#N)ccc1Cl [MLS000395038]
42 | > 300 µM | O=C(CN(Cc1cccs1)C(=O)CCC(=O)Nc1nccs1)NCc1ccccc1 [MLS000551058]
43 | > 300 µM | CN1CCc2c(sc(NC(=O)Cc3ccc(F)cc3)c2C(N)=O)C1 [SMR000641824]
44 | > 300 µM | CCC(NC(=O)Cc1c(C)c2cc3c(cc2oc1=O)OC(C)(C)CC3)C(=O)O (configuration not stated) [MLS001215946]
45 | > 300 µM | COc1ccc(CNCC2COc3ccccc3O2)cc1 (configuration not stated) [SMR000588087]
46 | > 300 µM | CCOc1ccc(N2C(=O)S/C(=C\c3cccn3C)C2=O)cc1 [MLS000580380]
47 | > 300 µM | CCOC(=O)c1cnc2ccc(F)cc2c1Nc1ccc2c(c1)OCCO2 [SMR000198647]
48 | 14.5 µM | O=C(Nc1ccncc1)c1ccccc1-c1ccccc1 [MLS000672259]
49 | > 300 µM | COc1ccc(Nc2nc(-c3ccccc3)c(C(=O)Nc3cccnc3)s2)cc1 [MLS001018742]
50 | > 300 µM | Nc1nonc1-n1nnc(C(=O)NN=Cc2cccc(F)c2)c1CN1CCCC1 [MLS000948239]
51 | > 300 µM | O=C(C1=C[C@@H](c2ccc(C(F)(F)F)cc2)C[C@@H](OCCCCO)O1)N1CCN(Cc2ccccc2)CC1 [SMR000389639]
52 | > 300 µM | COc1ccc(-c2nn(-c3ccccc3)cc2CN=Nc2ccccn2)cc1 [MLS000336205]
